# Laboratory results: ChEMBL document CHEMBL1201862, “PubChem BioAssay data set” (2004)
# Activity calls are given as the source filed them.
# Assays:
# [1] = THP-1 cell cytotoxicity, dose response, cytotoxicity control for non-replicating M. tuberculosis project (AID 489025); format: functional
# [2] = cells; format: functional
# [3] = NIH3T3 cell viability loss – ATP luminescence, mouse fibroblasts, counter-screen, dose response (AID 2010); format: functional, cell-based;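 further: cells exposed to compound for about 90 hours before reading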
# [4] = Trypanosoma cruzi growth suppression in host cells – NIH3T3 host cells, beta-gal luminescence, confirmation (AID 2044); format: functional, cell-based;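 further: intracellular parasites grown in NIH/3T3 mouse fibroblasts as host cells; luminescent beta-galactosidase reporter signal from transgenic T. cruzi replicating inside host cells; inhibitors lower the luminescence signal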
# [5] = target: T1, High affinity choline transporter 1 (Homo sapiens, UniProt Q9GZV3); experiment: human choline transporter blockers, potency – cell-based, 5-point CRC, membrane potential dye, dose response (AID 504840); format: functional
# T1 sequence (Q9GZV3 whole entry): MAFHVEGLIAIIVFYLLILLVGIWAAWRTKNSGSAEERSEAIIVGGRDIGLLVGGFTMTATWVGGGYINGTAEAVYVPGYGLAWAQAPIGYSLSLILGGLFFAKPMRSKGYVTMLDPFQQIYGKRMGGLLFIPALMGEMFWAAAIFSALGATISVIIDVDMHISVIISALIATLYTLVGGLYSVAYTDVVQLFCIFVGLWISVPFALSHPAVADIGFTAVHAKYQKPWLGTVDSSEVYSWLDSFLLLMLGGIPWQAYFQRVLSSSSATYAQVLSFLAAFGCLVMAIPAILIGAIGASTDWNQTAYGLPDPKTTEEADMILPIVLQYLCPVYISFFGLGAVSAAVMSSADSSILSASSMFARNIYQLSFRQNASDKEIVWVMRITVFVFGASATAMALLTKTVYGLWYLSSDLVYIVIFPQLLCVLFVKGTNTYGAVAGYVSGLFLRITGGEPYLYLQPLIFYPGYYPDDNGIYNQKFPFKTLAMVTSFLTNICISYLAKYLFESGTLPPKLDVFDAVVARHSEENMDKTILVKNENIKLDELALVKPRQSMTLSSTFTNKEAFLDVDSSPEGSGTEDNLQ
# [6] = microbe, parasite or virus in culture; format: functional; conditions: Mycobacterium tuberculosis
# [7] = target: T2, Calpain-2 catalytic subunit (Sus scrofa, UniProt P43367); experiment: m-calpain protease blockers, concentration series – biochemical, fluorogenic peptide substrate, dose response (AID 1420); format: functional
# T2 sequence (P43367 whole entry): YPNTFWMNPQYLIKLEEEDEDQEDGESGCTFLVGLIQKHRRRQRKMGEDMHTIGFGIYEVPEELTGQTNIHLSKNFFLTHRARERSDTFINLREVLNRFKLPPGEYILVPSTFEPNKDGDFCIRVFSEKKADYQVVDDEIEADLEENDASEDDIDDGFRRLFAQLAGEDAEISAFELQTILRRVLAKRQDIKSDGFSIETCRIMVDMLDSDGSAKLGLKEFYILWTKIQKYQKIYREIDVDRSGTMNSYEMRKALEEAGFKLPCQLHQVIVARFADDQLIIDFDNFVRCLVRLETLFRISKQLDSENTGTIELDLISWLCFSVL
# [8] = target: T3, Streptokinase A (Streptococcus pyogenes serotype M1, UniProt P10520); experiment: viability-normalized secreted streptokinase activity reduction – plasminogen activation absorbance, OD405, dose response (AID 1914); format: functional, Streptococcus pyogenes M1 GAS;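 further: secreted streptokinase activity via plasminogen activation per viability signal from cell pellet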
# T3 sequence (P10520 whole entry): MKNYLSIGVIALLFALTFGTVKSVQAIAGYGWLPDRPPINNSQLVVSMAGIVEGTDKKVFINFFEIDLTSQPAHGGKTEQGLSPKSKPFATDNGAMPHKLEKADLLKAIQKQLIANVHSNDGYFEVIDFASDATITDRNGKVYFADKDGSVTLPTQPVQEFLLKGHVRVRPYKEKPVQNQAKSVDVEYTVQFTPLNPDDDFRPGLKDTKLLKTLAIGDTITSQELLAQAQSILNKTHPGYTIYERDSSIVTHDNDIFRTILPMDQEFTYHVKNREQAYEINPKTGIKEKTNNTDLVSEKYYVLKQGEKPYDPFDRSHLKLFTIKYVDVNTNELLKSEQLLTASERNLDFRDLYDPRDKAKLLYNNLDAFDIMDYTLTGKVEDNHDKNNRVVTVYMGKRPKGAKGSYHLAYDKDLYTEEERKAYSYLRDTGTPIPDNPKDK
# [9] = system: Streptococcus; experiment: GAS UMAA2166 growth inhibition – luminescence, BacTiterGlo, counter-screen for streptokinase expression inhibitor project, dose response (AID 1915); format: functional, organism-based;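 further: potency for reduction of bacterial viability or growth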
# [10] = system: Streptococcus sp. 'group A'; experiment: Streptococcus pyogenes SK(-)GAS viability under kanamycin – luminescence, BacTiterGlo, confirmation, counter-screen for streptokinase expression inhibitor project, dose response (AID 1900); format: functional, organism-based
# [11] = target: T4, Microphthalmia-associated transcription factor (Homo sapiens, UniProt O75030); experiment: reducers of TRPM1 reporter luminescence, concentration series – cell-based, SK-MEL-5, cherry-picked, set 3, MITF inhibitor project, dose response (AID 493073); format: functional;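 further: SK-MEL-5 melanoma cells with luciferase driven by the MITF target TRPM1 promoter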
# T4 sequence (O75030 whole entry): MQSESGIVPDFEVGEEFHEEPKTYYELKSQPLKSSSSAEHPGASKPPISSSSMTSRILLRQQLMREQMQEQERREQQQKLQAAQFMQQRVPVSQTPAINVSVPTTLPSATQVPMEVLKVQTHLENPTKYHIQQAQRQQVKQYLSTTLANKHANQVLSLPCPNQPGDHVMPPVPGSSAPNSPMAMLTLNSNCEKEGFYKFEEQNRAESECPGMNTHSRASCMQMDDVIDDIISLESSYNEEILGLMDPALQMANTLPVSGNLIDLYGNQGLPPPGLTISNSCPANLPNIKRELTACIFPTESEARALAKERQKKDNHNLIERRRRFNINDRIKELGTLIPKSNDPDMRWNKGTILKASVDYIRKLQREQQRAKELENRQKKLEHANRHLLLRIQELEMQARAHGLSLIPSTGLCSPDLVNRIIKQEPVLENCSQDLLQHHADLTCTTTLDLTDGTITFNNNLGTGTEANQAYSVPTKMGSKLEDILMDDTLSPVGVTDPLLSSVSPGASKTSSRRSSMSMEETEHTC
# [12] = Luminescence Cell-Based Dose Retest to Confirm Inhibitors of Cancer Stem Cells. [Related pubchem assays (depositor defined):AID2717, AID2721]; format: functional; conditions: Homo sapiens
# [13] = target: Induced myeloid leukemia cell differentiation protein Mcl-1 (Homo sapiens, UniProt Q07820); format: functional
# [14] = A549 cell cytotoxicity, dose response, cytotoxicity control, plate reader, cherry-pick, antagonist series (AID 743412); format: functional, cell-based
# [15] = blockade of melanocortin 4 receptor signaling – cell-based, plate reader, cherry pick, counter-screen for LGR2 antagonist project, dose response (AID 743444); format: functional;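 further: transfected HEK 293 cells stimulated with alpha-MSH peptide; potency of inhibitors of the alpha-MSH evoked signal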
# [16] = target: T5, Protein RecA (Mycobacterium tuberculosis, UniProt P9WHJ3); experiment: Fluorescence Cell-Free Homogeneous Dose Retest to Identify Inhibitors of RecA-Intein Splicing Activity. [Related pubchem assays (depositor defined):AID2097, AID2223, AID489010, AID492950]; format: functional
# T5 sequence (P9WHJ3 whole entry): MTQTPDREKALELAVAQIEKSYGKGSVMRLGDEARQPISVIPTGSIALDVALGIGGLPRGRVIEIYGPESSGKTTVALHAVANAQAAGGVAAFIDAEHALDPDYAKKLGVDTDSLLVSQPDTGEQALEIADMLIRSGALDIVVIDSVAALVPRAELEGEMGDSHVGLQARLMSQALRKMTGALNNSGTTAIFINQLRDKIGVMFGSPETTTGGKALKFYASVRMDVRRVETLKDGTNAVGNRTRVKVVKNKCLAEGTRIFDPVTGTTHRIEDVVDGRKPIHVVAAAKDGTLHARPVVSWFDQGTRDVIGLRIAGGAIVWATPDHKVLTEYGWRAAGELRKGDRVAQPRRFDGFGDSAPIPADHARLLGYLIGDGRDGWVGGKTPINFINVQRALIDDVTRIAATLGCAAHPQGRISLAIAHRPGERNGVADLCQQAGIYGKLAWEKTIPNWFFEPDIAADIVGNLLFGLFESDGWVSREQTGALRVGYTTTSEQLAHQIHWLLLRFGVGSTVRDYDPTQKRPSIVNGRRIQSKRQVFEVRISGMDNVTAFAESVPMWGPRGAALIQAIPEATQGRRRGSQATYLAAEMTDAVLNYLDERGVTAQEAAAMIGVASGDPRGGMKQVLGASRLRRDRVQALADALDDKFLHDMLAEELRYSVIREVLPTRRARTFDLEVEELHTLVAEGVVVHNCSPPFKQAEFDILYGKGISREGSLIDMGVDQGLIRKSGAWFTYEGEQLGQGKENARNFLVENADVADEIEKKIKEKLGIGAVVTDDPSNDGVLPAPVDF
# [17] = target: Cytochrome P450 3A4 (Homo sapiens, UniProt P08684);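 further: CYP3A4 tested as one member of a cytochrome P450 panel screen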
# [18] = target: T6, Mannose-6-phosphate isomerase (Homo sapiens, UniProt P34949); experiment: MPI inhibition at elevated mannose 6-phosphate – biochemical, fluorescence intensity, high mannose 6-phosphate, primary screen (AID 1220)
# T6 sequence (P34949 whole entry): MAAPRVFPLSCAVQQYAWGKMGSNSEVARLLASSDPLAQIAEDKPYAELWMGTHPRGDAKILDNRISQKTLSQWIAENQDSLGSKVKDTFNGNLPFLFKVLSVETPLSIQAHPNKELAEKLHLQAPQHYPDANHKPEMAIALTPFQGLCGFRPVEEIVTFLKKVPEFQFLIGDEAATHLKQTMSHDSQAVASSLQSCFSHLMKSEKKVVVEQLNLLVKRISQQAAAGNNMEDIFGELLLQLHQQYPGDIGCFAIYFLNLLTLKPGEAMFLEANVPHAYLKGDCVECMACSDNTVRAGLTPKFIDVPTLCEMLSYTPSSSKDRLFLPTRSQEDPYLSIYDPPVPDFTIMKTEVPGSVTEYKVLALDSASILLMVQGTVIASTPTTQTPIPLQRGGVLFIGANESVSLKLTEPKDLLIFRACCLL
# [19] = blockers of bursicon-stimulated LGR2 cAMP reporter – cell-based, HEK293, CRE-luciferase reporter, cherry pick, set 2, dose response (AID 743343); format: functional;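 further: transfected cells were stimulated with diluted bursicon conditioned medium after compound addition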
# [20] = target: T7, Ubiquitin-conjugating enzyme E2 N (Homo sapiens, UniProt P61088); format: functional;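 further: Dose-response confirmation in a TR-FRET assay detecting UBC13-driven polyubiquitin chain formation, inhibition measured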
# T7 sequence (P61088 whole entry): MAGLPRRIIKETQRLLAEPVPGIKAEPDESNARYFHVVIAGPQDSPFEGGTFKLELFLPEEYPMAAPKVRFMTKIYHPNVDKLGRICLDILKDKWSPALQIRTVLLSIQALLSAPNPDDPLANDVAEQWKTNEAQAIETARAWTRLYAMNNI
# [21] = target: Heat shock protein HSP 90-alpha (Homo sapiens, UniProt P07900); format: functional, organism-based
# [22] = system: INS1; experiment: INS-1E survival protection against cytokine death – cell-based, luminescence, retest, dose response (AID 449756); format: functional; conditions: Rattus norvegicus;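 further: cell death triggered by IL-1 beta plus TNF-alpha plus IFN-gamma mixture; protective hits raise ATP signal compared with cytokine alone wells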
# Sequence of Induced myeloid leukemia cell differentiation protein Mcl-1 (Q07820 whole entry): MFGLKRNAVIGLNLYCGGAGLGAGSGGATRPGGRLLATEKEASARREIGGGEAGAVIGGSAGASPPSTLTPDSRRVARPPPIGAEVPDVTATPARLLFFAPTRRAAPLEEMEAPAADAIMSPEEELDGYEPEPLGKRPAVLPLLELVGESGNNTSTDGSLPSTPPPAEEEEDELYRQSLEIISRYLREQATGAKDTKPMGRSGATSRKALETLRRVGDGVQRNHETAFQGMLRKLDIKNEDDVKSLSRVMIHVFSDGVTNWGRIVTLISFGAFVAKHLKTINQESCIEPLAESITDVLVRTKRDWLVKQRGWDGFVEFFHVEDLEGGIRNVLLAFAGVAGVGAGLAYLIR
# Sequence of Cytochrome P450 3A4 (P08684 whole entry): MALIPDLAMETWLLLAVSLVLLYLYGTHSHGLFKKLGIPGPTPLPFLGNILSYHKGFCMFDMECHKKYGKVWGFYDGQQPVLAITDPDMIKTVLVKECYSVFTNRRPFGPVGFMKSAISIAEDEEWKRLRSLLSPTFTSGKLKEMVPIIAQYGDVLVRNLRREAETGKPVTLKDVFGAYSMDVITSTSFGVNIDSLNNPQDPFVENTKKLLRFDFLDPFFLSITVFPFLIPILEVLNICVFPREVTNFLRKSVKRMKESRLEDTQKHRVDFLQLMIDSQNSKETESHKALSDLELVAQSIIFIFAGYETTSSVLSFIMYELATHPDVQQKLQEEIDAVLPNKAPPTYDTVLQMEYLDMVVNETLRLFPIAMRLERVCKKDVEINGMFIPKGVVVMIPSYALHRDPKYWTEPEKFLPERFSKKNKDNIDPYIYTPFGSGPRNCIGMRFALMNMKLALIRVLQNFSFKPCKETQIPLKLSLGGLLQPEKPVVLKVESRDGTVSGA
smiles,measurement,setting,value
Cc1ccc(OCCCCn2ccnc2)c(Cl)c1,CC50,[1],> 40 µM (active)
same,IC50,[2],39.1 µM (active)
same,EC50,[3],> 60 µM (not active)
same,EC50,[4],1.37 µM (active)
O=C(NNc1nc(-c2ccccc2)cs1)c1ccccc1,IC50,[5],14.5 µM (active)
same,CC50,[6],> 40 µM (active)
Oc1c(Cl)cc(Cl)cc1C(C#Cc1ccccc1)N1CCOCC1 (centres undefined),IC50,[7],12.8 µM (not active)
same,EC50,[8],26.8 µM (active)
same,EC50,[9],48.9 µM (active)
same,EC50,[10],16.6 µM (active)
O=C(NC(=S)NCC1CCCO1)c1ccc(Br)o1 (centres undefined),IC50,[7],1.43 µM (not active)
O=C(CSc1nnnn1-c1ccc(O)cc1)Nc1cccc(S(=O)(=O)N2CCCC2)c1,AC50,[11],50.2 µM (active)
O=C(CCc1ccc(Oc2cc([N+](=O)[O-])cc([N+](=O)[O-])c2)cc1)N1CCCCCC1,CC50,[6],> 40 µM (active)
same,EC50,[3],> 30 µM (not active)
same,AC50,[12],4.73 µM (active)
same,EC50,[4],0.187 µM (active)
COc1ccc(C(=O)N2c3ccccc3CC2C)cc1OC (centres undefined),IC50,[13],0.799 µM (not active)
CCOc1ccc(-c2ccc(/C=C3/C(=N)N4C=CSC4=NC3=O)o2)c([N+](=O)[O-])c1,IC50,[13],1.48 µM (active)
COc1ccc(Cl)c(N2CCN(CCCNC(=O)Nc3ccc(C)cc3)CC2)c1,IC50,[13],6.56 µM (active)
N#C[C@@H]1[C@H](c2ccc(C#CC3CCCCC3)cc2)[C@@H](CO)N1C(=O)c1cccc(F)c1,AC50,[14],35.8 µM (active)
same,AC50,[15],36.1 µM (active)
CN1c2ccccc2C(C)(C)C12C=Nc1c(cc(N3CCOCC3)c3ccccc13)O2 (centres undefined),EC50,[16],50.5 µM (inconclusive)
same,AC50,[17],4.47 µM (inconclusive)
same,IC50,[18],> 50 µM (not active)
O=c1cc(-c2ccccc2)oc2cc(OCc3ccccc3)cc(O)c12,IC50,[7],> 50 µM (not active)
c1ccc(C2=Nn3c(nnc3-c3ccco3)SC2)cc1,IC50,[18],> 50 µM (not active)
CCOC(=O)c1c(N)sc(N)c1C(=O)OCC,IC50,[18],> 50 µM (not active)
Cc1ccc(S(=O)(=O)N(C)C[C@H]2Oc3c(cccc3N(C)C)C(=O)N([C@@H](C)CO)C[C@@H]2C)cc1,AC50,[14],> 52 µM (inactive)
same,AC50,[19],0.726 µM (active)
same,AC50,[15],0.341 µM (active)
CCCCNC(=S)N/N=C1\CCCCc2ccccc21,IC50,[7],11.2 µM (not active)
c1ccc(-c2c3c4ccccc4nc-3[nH]c3ccccc23)cc1,CC50,[6],> 40 µM (active)
same,AC50,[12],2.03 µM (active)
NC1=NC[C@H](Cc2ccc(O)cc2)N1CCc1cccc2ccccc12,CC50,[1],> 40 µM (active)
same,IC50,[20],> 20 µM (inactive)
same,IC50,[2],9.5 µM (active)
COc1ccc(C(CC(=O)c2ccccc2)S(=O)(=O)c2ccc(C)cc2)cc1 (centres undefined),CC50,[6],> 40 µM (active)
CC1CCCCN1Cc1cnc(Cl)s1 (centres undefined),IC50,[7],> 50 µM (not active)
CCCC(=O)NC(c1ccc(OC)c(OC)c1)c1cc(Cl)c2cccnc2c1O (centres undefined),AC50,[21],12.4 µM (active)
same,EC50,[3],< 6 µM (inconclusive)
same,AC50,[22],1.69 µM (active)
same,AC50,[11],9.06 µM (active)
same,EC50,[4],1.2 µM (active)
O=C(Nc1cccc(-c2ccc(N3CCCCC3)nn2)c1)c1ccc(Br)o1,CC50,[6],> 40 µM (active)
